These results are taken from patent US20240382558A1, “PHARMACEUTICAL COMPOSITION FOR PREVENTING OR TREATING INTERSTITIAL CYSTITIS/BLADDER PAIN SYNDROME” (priority 2022, published 2024).

In assay [1] the test system is IC/BPS model rats. The assay can be described thus: Cystometry (intravesical pressure and urination volume) in HCl-induced IC/BPS model rats. It counts as in vivo, rat. The method, then: Through the catheter, 250 μL of saline (Sham group) or 250 μL of 0.1 M HCl (IC group) was instilled into the bladder and held for 1 minute, and then the bladder was washed twice with saline. The Sham and IC groups were each divided into two groups (n=7-8/group), and 200 μL of saline or 200 μL of RGDS peptide solution (500 mg/L saline solution, MedChemExpress) was administered intraperitoneally. On day 7 after administration, a polyethylene catheter was inserted and retained in the apex of the bladder, and a pressure transducer (MLT0699, ADInstruments Ltd, Dunedin, New Zealand), PowerLab 4/26 (ADInstruments Ltd, Dunedin New Zealand) were connected. A syringe pump (YSP-101, YMC Co., Ltd., Kyoto, Japan) was connected to the pressure transducer to measure intravesical pressure and urination volume while continuously instilling 40 μL/min saline solution into the bladder. The pressure at the urination event peak on the cystometrogram was defined as the maximum intravesical pressure, the peak interval as the urination interval, the pressure immediately after the peak as the basal intravesical pressure, the pressure immediately before the peak as the threshold pressure for urination, and the urination volume at the peak as urine volume per urination event.
A similar study to Example 1 was conducted, except that the RGDS peptide used in Example 1 was replaced with 400 μL of cilengitide solution (6.75 g/L saline solution, Tokyo Kasei). In the cilengitide-administered group, the urination interval was prolonged compared to the group that received instillation of saline (FIG. 3), confirming that frequent urination was ameliorated.

The subject of assay [2] is IC/BPS model rats. The experiment in a line: Pain threshold by electronic von Frey filament on lower abdomen in IC/BPS model rats. In kind it is in vivo, rat. As to conditions: IC+R group vs IC group; day 5 after administration; average of three measurements; FIG. 4. How it is done:
Sham, IC, and IC+R groups were prepared as in Example 1. On day 5 after administration, the rats were placed in a metabolic cage with a wire mesh bottom and allowed to acclimate for 10 minutes, and the lower abdomen was stimulated with increasing pressure using an electronic von Frey filament (BIO-EVF, Bioseb, Vitrolles, France). The pressure at which an escape response was observed was measured as the pain threshold. This measurement was repeated three times with a 5-minute interval, and the average was calculated. The pain threshold increased in the IC+R group compared to the IC group (FIG. 4), confirming an ameliorating trend of pain.

[3] abbreviates: among Sham, Sham+R, IC, IC+R groups, 200 μL RGDS peptide solution (500 mg/L) intraperitoneally, day 7.

Regarding `CC(C)[C@H]1C(=O)N[C@@H](CCCN=C(N)N)C(=O)NCC(=O)N[C@@H](CC(=O)O)C(=O)N[C@H](Cc2ccccc2)C(=O)N1C` [cilengitide], the urination interval result in assay [1] (cilengitide-administered IC group vs saline group, 400 μL cilengitide solution (6.75 g/L saline), FIG. 3) is on record as “prolonged”.

As to RGDS [RGDS peptide], in assay [1] (IC+R group vs IC group given saline, 200 μL RGDS peptide solution (500 mg/L saline) intraperitoneally, day 7 after administration, FIGS. 1 and 2), the urination interval entry is recorded as “significantly prolonged”. In assay [1] (setting [3]), the basal intravesical pressure entry was “did not differ among all groups”, the maximum intravesical pressure entry is reported as “did not differ among all groups” and the “threshold pressure for urination” value is “did not differ among all groups”. The “pain threshold (pressure at which an escape response was observed)” value in assay [2] is reported as “increased”.
